Test results as given in patent US8425945B2, “Methods and compositions for regulating biofilm development” (NewSouth Innovations Pty Limited, priority 2005, dated 2013).

Key:
S. marcescens biofilms = experiment: Dispersal of biofilms on slides, surface coverage; assay type: cell-based, Serratia marcescens; conditions: SNAP 100 nM, 24 hours
P. aeruginosa PAO1 = experiment: Biofilm to planktonic transition on microscope slides in petri dishes with NO donors/scavenger; assay type: cell-based, Pseudomonas aeruginosa; conditions: for biofilm formation (percentage of surface coverage) / planktonic growth (OD600 nm of supernatant): NO donor 1 μM, 24 hours, lesser extent than SNP
Vibrio cholerae biofilms = experiment: Dispersal of biofilms on slides, surface coverage; assay type: cell-based; conditions: 1 μM GSNO, 24 hours
P. aeruginosa biofilms = experiment: Sensitivity of biofilms grown with SNP to antimicrobial agents; assay type: cell-based, Pseudomonas aeruginosa; conditions: tobramycin 100 μM, 30 minutes, with 500 nM SNP

| SMILES | biofilm formation (percentage of surface coverage) (P. aeruginosa PAO1) | planktonic growth (OD600 nm of supernatant) (P. aeruginosa PAO1) | further results |
| --- | --- | --- | --- |
| CC(=O)N[C@H](C(=O)O)C(C)(C)SN=O (racemic) [SNAP, S-nitroso-N-acetylpenicillamine] | decreases in biofilm formation | increases in planktonic growth | dispersal of biofilms (S. marcescens biofilms): effective for dispersal |
| N[C@@H](CCC(=O)N[C@@H](CSN=O)C(=O)NCC(=O)O)C(=O)O [GSNO, S-nitroso-L-glutathione] | decreases in biofilm formation | increases in planktonic growth | stability of biofilms (Vibrio cholerae biofilms): significant effect on stability |
| CC1(C)N([O])C(c2ccccc2)=[N+]([O-])C1(C)C [PTIO, 2-phenyl-4,4,5,5-tetramethyl-imidazoline-1-oxyl 3-oxide] | – | – | reduction of the SNP effect in both planktonic and biofilm phenotypes (P. aeruginosa PAO1; PTIO 1 mM in addition to SNP 500 nM): ≥ 40% |
| NC[C@H]1O[C@H](O[C@H]2[C@H](O)[C@@H](O[C@H]3O[C@H](CO)[C@@H](O)[C@H](N)[C@H]3O)[C@H](N)C[C@@H]2N)[C@H](N)C[C@@H]1O [tobramycin] | – | – | antimicrobial giving the highest effect in combination with SNP (P. aeruginosa biofilms): highest effect |
